The test system of assay [1] is CHO-B2 cells (human cloned B2 receptor). In kind it is cell-based, Chinese hamster ovary cells. To be noted: for EC50: 1 h at 37 °C, enzyme immunoassay, mean ± SEM, 3 to 6 experiments, read-out: Total PGs production in CHO-B2 cells (EC50); for PG production/release by compound alone, CHO-B2 cells: compound on its own.
For assay [2], the system named is h-CM cells. In kind it is cell-based, human. As to conditions: 1 h at 37 °C; enzyme immunoassay; mean ± SEM, 3 to 6 experiments; read-out: PGE2 production in h-CM cells (EC50).
For assay [3], the system named is h-CM cells. It counts as cell-based, human. As to conditions: 1 h at 37 °C; enzyme immunoassay; mean ± SEM, 3 to 6 experiments; read-out: PGF2α production in h-CM cells (EC50).
For assay [4], the system named is CHO-B2 cells. It counts as cell-based, Chinese hamster ovary cells, human cloned B2 receptor. To be noted: 1 h at 37 °C; enzyme immunoassay; mean ± SEM, 3 to 6 experiments; read-out: PGE2 production in CHO-B2 cells (EC50).
For a further assay, the system named is primary h-CM cells. In kind it is cell-based, human. As to conditions: for EC50: 1 h at 37 °C, enzyme immunoassay, mean ± SEM, 3 to 6 experiments, read-out: Total PGs production in h-CM cells (EC50).
In assay [5] the test system is CHO-B2 cells. In kind it is cell-based, Chinese hamster ovary cells, human cloned B2 receptor. As to conditions: 1 h at 37 °C; enzyme immunoassay; mean ± SEM, 3 to 6 experiments; read-out: PGF2α production in CHO-B2 cells (EC50).
For assay [6], the system named is CHO-B2 cells. To be noted: read-out: PGD2 production in CHO-B2 cells (EC50), 1 h at 37 °C, enzyme immunoassay. As for the experimental part:
Measurement of prostaglandins in human ciliary muscle and Chinese hamster ovary cells expressing B2 receptors
This involved stimulating h-CM cells and CHO-B2 cells with various concentrations of test peptides and measuring the release of various PGs in the extracellular medium. The concentration-dependent effects of these peptides on total PGs, and specifically PGE2, PGF2α, and PGD2 release, were studied. Cells were grown as a monolayer in a 24-well plate (precoated with fibronectin) to confluence and subsequently serum-starved overnight before the experiment. On the day of the experiment, just before the drug was added, the wells were aspirated completely, and 990 µl basal medium and 10 µl 100× series of concentrations of the different peptide agonists were added to achieve the desired final concentrations of each compound (e.g., 0.1 nM to 10 µM). […] At the end of the incubation period, the cellular supernatants were collected and stored at −80 °C or used immediately to determine the PG content. Cell supernatants were tested for total PG levels and sub-species of PGs (PGE2, PGF2α, and PGD2) using specific competitive enzyme immunoassays (Cayman Chemical Co., Ann Arbor, MI) as directed in the manufacturer’s recommended protocols using the supplied standards and reagents. The limits of detection for various PGs were as follows: total PGs=29 pg/ml; PGE2=15 pg/ml; PGF2α=9 pg/ml; PGD2=200 pg/ml.

The test system of assay [7] is B2-receptor, primary h-CM cells. In kind it is cell-based, human. As for the experimental part:
Functional assay measuring [Ca^2+]i mobilization in cultured human ciliary muscle cells
Accordingly, we isolated h-CM cells and studied BK-induced [Ca^2+]i mobilization in these cells using the Fluorescence Imaging Plate Reader (FLIPR; Molecular Devices, Menlo Park, CA) instrument as previously described. Low passage h-CM cells were seeded at a density of about 20,000 cells/well in a black-wall, 96-well tissue culture plates and grown for 2 days. On the day of the experiment, one vial of FLIPR Calcium Assay Kit dye (Molecular Devices) was resuspended in 50 ml of a FLIPR buffer consisting of Hank’s Balanced Salt Solution (HBSS), 20 mM HEPES, and 2.5 mM probenecid, pH 7.4. Cells were loaded with the calcium-sensitive dye (proprietary to Molecular Devices) by adding an equal volume (50 µl) to each well of the 96-well plate and incubated with dye for 1 h at 23 °C. Then the test compound plate and the cell plate were placed in the FLIPR instrument, and an aliquot (25 μl) of the BK solution (positive control) or the test compound was added to the existing 100 μl dye-loaded cells at a dispensing speed of 50 μl/sec. Fluorescence data were collected in real time over a period of time. Responses were measured as peak fluorescence intensity minus basal and where appropriate are expressed as a percentage of a maximum BK-induced response [Emax %]. When antagonist studies were performed, the latter were incubated with the cells for 15 min before BK was added. When the effects of various cellular signaling inhibitors/treatments were investigated, they were added to the cells 5 min before BK was added. The potencies (EC50 or IC50 values) of agonists and antagonists were determined from concentration-response curves using a sigmoidal-fit, iterative algorithm of a computer program designed to automatically fit the raw data (ActivityBase, IDBS, Surrey, UK). […] Concentration-response curves and other plots for the manuscript were constructed using Origin® software package (Microcal® Software Inc., Northampton, MA).
Figure 3 Concentration-dependent effect of bradykinin (BK) on mobilization of [Ca^2+]i in normal, primary h-CM cells. Fluorescent dye-loaded h-CM cells were exposed to different concentrations of BK and the changes in relative fluorescence units (RFUs), indicating changes in levels of [Ca^2+]i, monitored over time (Figure 3A). The peak responses to various BK concentrations were then used to construct the concentration-response curves. Other BK-related peptides were tested in the same manner and their concentration-response curves plotted (e.g., data from a representative experiment; Figure 3B).

The test system of the next assay is primary h-TM cells. In kind it is cell-based, human. To be noted: preliminary data, values rounded-off, read-out: Agonist potency at stimulating [Ca^2+]i mobilization in primary h-TM cells (EC50).
The subject of another assay is cynomolgus monkey eyes. As to conditions: cabergoline 50 µg topical, ocular hypertensive eyes, nine monkeys, ref Thirty ([30]), cited from earlier work. The source says: Table 4 Effects of topical ocular bradykinin on IOP of Cynomolgus monkey eyes | column: Monkey IOP changes after topical ocular dosing / IOP (mmHg); Monkey IOP changes after topical ocular dosing / IOP change (% of control)

In general, EC50 refers to the concentration giving half of the maximal effect.

Read-outs that look alike come from different tables or passages of the source.

In the case of `CCCC[P+](CCCC)(CCCC)Cc1ccc(NC(=O)[C@H](Cc2ccc3ccccc3c2)NC(=NC2CCCCC2)NC2CCCCC2)cc1.[Cl-]` [(S)-WIN-64338], the EC50 in assay [1] was above 10 nM; with h-CM cells [2] it was above 10000 nM; in the assay on h-CM cells [3], above 10000 nM; in the assay on CHO-B2 cells [4], above 10 nM; in the assay on primary h-CM cells, above 10000 nM; in the assay with CHO-B2 cells [5], above 10 nM. In addition, the “Effect on BK-induced total PGs production, CHO-B2 cells” value in assay [1] is recorded as “blocked”; in assay [1] (listed as WIN-64338), “potent antagonism”. The “PG production/release by compound alone, CHO-B2 cells” value in assay [1] is “failed to influence PG production”; in assay [1] (listed as WIN-64338), “did not induce PGs release”. For the same molecule, the “PG production/release by compound alone, h-CM cells” value in the assay on primary h-CM cells (compound on its own, listed as WIN-64338) is listed as “did not induce PGs release”. Besides, the “Effect on BK-induced total PGs production, h-CM cells” value in the assay with primary h-CM cells is “blocked”; in the assay with primary h-CM cells (listed as WIN-64338), “potent antagonism”.

In the case of `N=C(N)NCCC[C@H](NC(=O)[C@H](Cc1ccccc1)NC(=O)[C@@H]1CCCN1C(=O)[C@H](CO)NC(=O)[C@H](Cc1ccccc1)NC(=O)CNC(=O)[C@@H]1C[C@@H](O)CN1C(=O)[C@@H]1CCCN1C(=O)[C@@H](N)CCCNC(=N)N)C(=O)O` [Hyp^3-BK], the EC50 with CHO-B2 cells [6] (first of two values in cell) worked out at 0.0304 nM; in the assay on CHO-B2 cells [6] (second of two values in cell) it was 0.0582 nM; in assay [1], 0.0683 ± 0.0367 nM; in the assay with h-CM cells [2], 10.1 ± 4.2 nM; in assay [7] (primary h-CM cells, FLIPR, Calcium Assay Kit dye, pH 7.4, 23 °C dye loading, mean ± SEM, n=3-7, read-out: Agonist potency at stimulating [Ca^2+]i mobilization in primary h-CM cells (EC50)) it was 2.2 ± 0.2 nM; in the assay on h-CM cells [3], 9.2 ± 5.3 nM. Also, the EC50 with CHO-B2 cells [4] was found to be 0.0307 ± 0.0185 nM; with primary h-CM cells, 10.9 ± 6.1 nM; with primary h-TM cells, 1 nM; in the assay with CHO-B2 cells [5], 0.0593 ± 0.0373 nM.

For `CNCC(=O)N[C@@H](CCCNC(=N)N)C(=O)N1CCC[C@H]1C(=O)N1CCC[C@H]1C(=O)NCC(=O)N[C@@H](Cc1ccccc1)C(=O)N[C@@H](CO)C(=O)N1CCC[C@H]1C(=O)N[C@H](Cc1ccccc1)C(=O)O` [Sar-[D-Phe^9]-Des-Arg^9-BK], the EC50 was above 1 nM in [1] and above 1000 nM in the assay with primary h-CM cells.

Turning to `C=CCN1C[C@H](C(=O)N(CCCN(C)C)C(=O)NCC)C[C@@H]2c3cccc4[nH]cc(c34)C[C@H]21` [Cabergoline, cabergoline], the IOP with cynomolgus monkey eyes (0 h) was 34.7±3.0 mmHg. In addition, the “IOP change (% of control)” value with cynomolgus monkey eyes (0 h) is 0%; in the assay on cynomolgus monkey eyes (1 h), -16.0%; with cynomolgus monkey eyes (3 h), -30.4%; with cynomolgus monkey eyes (7 h) it was -28.8%; with cynomolgus monkey eyes (24 h), -27.3%.

Take `O=C(O)CN(CCOCCOCCN(CC(=O)O)CC(=O)O)CC(=O)O` [EGTA, ethylene glycol tetraacetic acid]: the “Effect on BK-induced [Ca^2+]i mobilization” value in assay [7] (EGTA 1 mM, 5 min preincubation) is “complete abolition of the response to BK”; in [7] (EGTA 1–2 mM) it was “totally abolished”; in assay [7] (EGTA 1–2 mM, listed as ethylene glycol tetraacetic acid), “abolished”.

In the case of `C/C=C(/C)C(=O)O[C@H]1C(C)=C2[C@H]([C@@H]1OC(=O)CCCCCCC)[C@@](C)(OC(C)=O)C[C@H](OC(=O)CCC)[C@@]1(O)[C@H]2OC(=O)[C@@]1(C)O` [thapsigargin], in assay [7] (thapsigargin 0.1 or 30 µM preincubation), the “Reduction of BK-mobilized [Ca^2+]i levels vs control cells” value is recorded as above 50%. In [7] (thapsigargin pretreatment), the “Effect on response to BK after thapsigargin” value is recorded as “blunted but not abolished”. In addition, the “Effect on BK-induced [Ca^2+]i rise in presence of EGTA” value in assay [7] (thapsigargin, 1 mM EGTA included) is “concentration-dependently reduced”.

Regarding ryanodine, the “Effect on BK-induced [Ca^2+]i levels” value in assay [7] (ryanodine 1–30 µM, data not shown) is “did not enhance but instead slightly reduced the effect of BK”.

Turning to `N=C(N)NCCC[C@H](N)C(=O)N1CCC[C@H]1C(=O)N1CCC[C@H]1C(=O)NCC(=O)N[C@@H](Cc1ccccc1)C(=O)N[C@@H](CO)C(=O)N1CCC[C@H]1C(=O)N[C@@H](Cc1ccccc1)C(=O)O` [Des-Arg^9-BK], the concentration for a half-maximal effect (EC50) in the assay with CHO-B2 cells [6] (one bound printed) is above 100 nM; in assay [1] it was above 100 nM; in the assay with h-CM cells [2] it was above 1000 nM; in the assay on h-CM cells [3], above 1000 nM; in the assay with CHO-B2 cells [4], above 100 nM; in the assay on primary h-CM cells, above 1000 nM. Moreover, the figures for the EC50 in the assay on primary h-TM cells and in the assay with CHO-B2 cells [5] were 3600 nM and above 100 nM, respectively.

These data come from publication PMC3693772, “Protein expression, biochemical pharmacology of signal transduction, and relation to intraocular pressure modulation by bradykinin B2 receptors in ciliary muscle” (Molecular Vision, 2013).
